PubChem BioAssay (NCI)
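Step 1: Grow cells in 96-well plates. Step 2: Expose to compound for 48 hours at 5 concentrations. Step 3: Interpolate endpoints linearly; if unreached, use highest concentration. The concentration for 50% growth inhibition is given as GI50. TGI marks complete inhibition of growth.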

What was measured:
Assay in all cases: growth of human tumour cells (NCI), 48 h
[1] = test system: SF-268 CNS
[2] = test system: SF-295 CNS
[3] = test system: CAKI-1 renal
[4] = test system: MCF7 breast
[5] = test system: COLO 205 colon
[6] = test system: KM12 colon
[7] = test system: SK-MEL-28 melanoma
[8] = test system: PC-3 prostate
[9] = test system: HOP-92 NSCLC
[10] = test system: RXF 393 renal
[11] = test system: HL-60(TB) leukemia
[12] = test system: OVCAR-4 ovarian
[13] = test system: CCRF-CEM leukemia
[14] = test system: HOP-62 NSCLC
[15] = test system: HT29 colon
[16] = test system: 786-0 renal
[17] = test system: DU-145 prostate
[18] = test system: MALME-3M melanoma
[19] = test system: EKVX NSCLC
[20] = test system: OVCAR-8 ovarian
[21] = test system: K-562 leukemia
[22] = test system: RPMI-8226 leukemia
[23] = test system: U251 CNS
[24] = test system: LOX IMVI melanoma
[25] = test system: TK-10 renal
[26] = test system: M14 melanoma
[27] = test system: T-47D breast
[28] = test system: IGROV1 ovarian
[29] = test system: UACC-257 melanoma
[30] = test system: UO-31 renal
[31] = test system: UACC-62 melanoma
[32] = test system: OVCAR-3 ovarian
[33] = test system: NCI-H226 lung
[34] = test system: NCI-H23 lung
[35] = test system: OVCAR-5 ovarian
[36] = test system: ACHN renal
[37] = test system: SK-OV-3 ovarian
[38] = test system: MDA-MB-435
[39] = test system: SNB-75 CNS
[40] = test system: SNB-19 CNS
[41] = test system: SN12C renal
[42] = test system: BT-549 breast
[43] = test system: HCT-116 colon
[44] = test system: HS 578T breast
[45] = test system: MOLT-4 leukemia
[46] = test system: SW-620 colon
[47] = test system: HCT-15 colon
[48] = test system: HCC-2998 colon
[49] = test system: SR leukemia
[50] = test system: MDA-MB-231 breast
[51] = test system: SK-MEL-5 melanoma
[52] = test system: NCI/ADR-RES ovarian
[53] = test system: A498 renal
[54] = test system: SF-539 CNS
[55] = test system: NCI-H522 lung
[56] = test system: NCI-H460 lung
[57] = test system: SK-MEL-2 melanoma
[58] = test system: A549 NSCLC

With `CC(C)=NNc1ncnc2c1ncn2C1OC(CO)C(O)C1O` (stereo not drawn) the GI50 [1] was 1.41 µM, the TGI [1] was greater than 100 µM and the GI50 [2] was 0.529 µM. For the same compound, the TGI [2] was greater than 33.2 µM, the GI50 [3] was 0.303 µM and the TGI [3] was 17.1 µM. For the same compound, the GI50 [4] was 0.327 µM, the TGI [4] was greater than 51.5 µM and the GI50 [5] was 0.414 µM. It also gave a TGI [5] of 6.31 µM, a GI50 [6] of 0.378 µM and a TGI [6] of 2.65 µM. The GI50 [7] was 4.5 µM, the TGI [7] was greater than 100 µM and the GI50 [8] was 0.733 µM. For the same compound, the TGI [8] was 29.1 µM, the GI50 [9] was 0.503 µM and the TGI [9] was 5.27 µM. For the same compound, the GI50 [10] was 0.3 µM, the TGI [10] was 3.54 µM and the GI50 [11] was 0.402 µM. The TGI [11] was 5.61 µM, the GI50 [12] was 0.509 µM and the TGI [12] was greater than 32.1 µM. For the same compound, the GI50 [13] was 0.581 µM, the TGI [13] was greater than 100 µM and the GI50 [14] was 0.398 µM. For the same compound, the TGI [14] was 4.21 µM, the GI50 [15] was 0.268 µM and the TGI [15] was greater than 100 µM. It also gave a GI50 [16] of 0.72 µM, a TGI [16] of 30.4 µM and a GI50 [17] of 0.324 µM. It also gave a TGI [17] of 2.4 µM, a GI50 [18] of 11.8 µM and a TGI [18] greater than 100 µM. It also gave a GI50 [19] of 2.95 µM, a TGI [19] greater than 73.4 µM and a GI50 [20] of 0.332 µM. The TGI [20] was greater than 100 µM, the GI50 [21] was 0.417 µM and the TGI [21] was greater than 100 µM. It also gave a GI50 [22] of 0.537 µM, a TGI [22] of 4.04 µM and a GI50 [23] of 0.648 µM. It also gave a TGI [23] greater than 100 µM, a GI50 [24] of 0.228 µM and a TGI [24] of 3.25 µM. The GI50 [25] was 0.529 µM, the TGI [25] was greater than 100 µM and the GI50 [26] was 0.752 µM. It also gave a TGI [26] greater than 100 µM, a GI50 [27] of 0.542 µM and a TGI [27] of 9.6 µM. The GI50 [28] was 0.287 µM, the GI50 [29] was 5.75 µM and the TGI [29] was greater than 100 µM. The GI50 [30] was 0.354 µM, the TGI [30] was 7.68 µM and the GI50 [31] was 1.21 µM. It also gave a TGI [31] of 9.3 µM, a GI50 [32] of 0.385 µM and a TGI [32] of 1.97 µM. It also gave a GI50 [33] of 0.448 µM, a TGI [33] greater than 100 µM and a GI50 [34] of 1.48 µM. For the same compound, the TGI [34] was 19.4 µM, the GI50 [35] was 1.16 µM and the TGI [35] was greater than 31.1 µM. The GI50 [36] was 0.278 µM, the TGI [36] was 3.24 µM and the GI50 [37] was 0.324 µM. The TGI [37] was 4.22 µM, the GI50 [38] was 0.528 µM and the TGI [38] was 11.7 µM. The GI50 [39] was 1.34 µM, the TGI [39] was greater than 78.1 µM and the GI50 [40] was 1.43 µM. For the same compound, the TGI [40] was greater than 100 µM, the GI50 [41] was 0.476 µM and the TGI [41] was 15.3 µM. It also gave a GI50 [42] of 1.61 µM, a TGI [42] of 15.4 µM and a GI50 [43] of 0.144 µM. It also gave a TGI [43] of 2.07 µM, a GI50 [44] of 5.8 µM and a TGI [44] greater than 26.3 µM. The GI50 [45] was 4.86 µM, the TGI [45] was greater than 100 µM and the GI50 [46] was 0.381 µM. For the same compound, the TGI [46] was greater than 100 µM, the GI50 [47] was 0.217 µM and the GI50 [48] was 1.94 µM. The TGI [48] was greater than 53 µM, the GI50 [49] was 0.414 µM and the TGI [49] was greater than 22 µM. For the same compound, the GI50 [50] was 0.285 µM, the TGI [50] was 13.6 µM and the GI50 [51] was 0.99 µM. It also gave a TGI [51] of 4.2 µM, a GI50 [52] of 0.442 µM and a TGI [52] greater than 21.6 µM. The GI50 [53] was 1.43 µM, the TGI [53] was greater than 100 µM and the GI50 [54] was 2.06 µM. For the same compound, the TGI [54] was 11.3 µM, the GI50 [55] was 0.283 µM and the TGI [55] was 3.24 µM. The GI50 [56] was 0.304 µM, the GI50 [57] was 1.81 µM and the TGI [57] was 29.2 µM.

Compound `Cc1ccc(C)c(COc2cc(NC(=O)c3ccc4c(c3)OCO4)ccc2N(C)S(C)(=O)=O)c1` has a GI50 [1] of 0.31 µM, a TGI [1] greater than 100 µM and a GI50 [2] of 0.0621 µM. It also gave a TGI [2] of 0.439 µM, a GI50 [3] of 0.16 µM and a TGI [3] greater than 100 µM. It also gave a GI50 [4] of 0.0716 µM, a TGI [4] greater than 100 µM and a GI50 [5] of 0.257 µM. It also gave a TGI [5] of 0.816 µM, a GI50 [6] of 0.077 µM and a TGI [6] of 1.06 µM. For the same compound, the GI50 [7] was 3.74 µM, the TGI [7] was greater than 100 µM and the GI50 [8] was 0.131 µM. It also gave a TGI [8] greater than 100 µM, a GI50 [9] of 2.59 µM and a TGI [9] greater than 100 µM. It also gave a GI50 [10] of 0.128 µM, a TGI [10] of 0.403 µM and a GI50 [11] of 0.0387 µM. It also gave a TGI [11] of 0.489 µM, a GI50 [12] of 0.648 µM and a TGI [12] greater than 100 µM. It also gave a GI50 [13] of 0.0866 µM, a TGI [13] greater than 100 µM and a GI50 [14] of 0.57 µM. It also gave a TGI [14] greater than 100 µM, a GI50 [15] of 0.114 µM and a TGI [15] of 2.34 µM. The GI50 [16] was 0.192 µM, the GI50 [17] was 0.172 µM and the TGI [17] was 0.543 µM. It also gave a GI50 [18] of 0.111 µM, a TGI [18] greater than 100 µM and a GI50 [19] of 0.466 µM. It also gave a TGI [19] greater than 100 µM, a GI50 [20] of 0.286 µM and a TGI [20] greater than 100 µM. It also gave a GI50 [21] of 0.0446 µM, a TGI [21] greater than 100 µM and a GI50 [22] of 0.319 µM. The TGI [22] was greater than 100 µM, the GI50 [23] was 0.238 µM and the TGI [23] was greater than 46.8 µM. For the same compound, the GI50 [24] was 0.0793 µM, the TGI [24] was greater than 100 µM and the GI50 [25] was 0.402 µM. It also gave a TGI [25] greater than 100 µM, a GI50 [26] of 0.0657 µM and a TGI [26] of 0.56 µM. It also gave a GI50 [27] of 0.807 µM, a TGI [27] greater than 100 µM and a GI50 [28] of 0.237 µM. The TGI [28] was greater than 100 µM, the GI50 [29] was 1.87 µM and the TGI [29] was greater than 100 µM. For the same compound, the GI50 [30] was 0.348 µM, the TGI [30] was greater than 100 µM and the GI50 [31] was 0.179 µM. It also gave a TGI [31] greater than 100 µM, a GI50 [33] of 0.904 µM and a TGI [33] greater than 100 µM. The GI50 [34] was 0.213 µM, the TGI [34] was greater than 100 µM and the GI50 [35] was 0.513 µM. For the same compound, the TGI [35] was greater than 100 µM, the GI50 [36] was 0.42 µM and the TGI [36] was greater than 100 µM. The GI50 [58] was 0.282 µM, the TGI [58] was greater than 36.9 µM and the GI50 [37] was 0.217 µM. It also gave a TGI [37] greater than 100 µM, a GI50 [38] of 0.0248 µM and a TGI [38] of 0.0718 µM. For the same compound, the GI50 [39] was 0.111 µM, the TGI [39] was 1.18 µM and the GI50 [40] was 0.332 µM. It also gave a TGI [40] greater than 100 µM, a GI50 [41] of 0.447 µM and a TGI [41] greater than 100 µM. It also gave a GI50 [42] of 0.374 µM, a TGI [42] greater than 100 µM and a GI50 [43] of 0.0662 µM. For the same compound, the TGI [43] was 1.12 µM, the GI50 [44] was 0.0363 µM and the TGI [44] was 0.307 µM. It also gave a GI50 [45] of 0.228 µM, a TGI [45] greater than 100 µM and a GI50 [46] of 0.0778 µM. The TGI [46] was greater than 100 µM, the GI50 [47] was 0.127 µM and the TGI [47] was greater than 100 µM. It also gave a GI50 [48] of 0.132 µM, a TGI [48] of 0.397 µM and a GI50 [49] of 0.0457 µM. The TGI [49] was greater than 100 µM, the GI50 [50] was 0.231 µM and the TGI [50] was 0.798 µM. It also gave a GI50 [51] of 0.172 µM, a TGI [51] of 1.67 µM and a GI50 [52] of 0.0562 µM. For the same compound, the TGI [52] was 0.407 µM, the GI50 [53] was 0.122 µM and the TGI [53] was 0.853 µM. The GI50 [54] was 0.118 µM, the TGI [54] was 0.79 µM and the GI50 [55] was 0.0815 µM. The TGI [55] was 0.424 µM, the GI50 [56] was 0.139 µM and the TGI [56] was 0.711 µM. For the same compound, the GI50 [57] was 0.595 µM.
